Here are results for 29 compounds from patent US20230117034A1, “PYRAZOLOTRIAZINES” (Bayer Aktiengesellschaft, priority 2019, published 2023).

For this assay, the target named is T1, CDK9/CycT1 (Homo sapiens, UniProt P50750).
T1 construct: Recombinant full-length His-tagged human CDK9 and CycT1; purchased Life Technologies PV4131; host or cells: insect cells
The assay is described as follows: CDK9/CycT1 high ATP kinase assay (TR-FRET, 2 mM ATP). It is filed as biochemical. The settings on record: 2 mM ATP (high ATP); median; read-out: CDK9/CyclinT1, 2 mM ATP (high ATP), IC50 (median). The method, boiled down: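 Full-length His-tagged human CDK9/CycT1 (insect cell, ~0.5 μg/mL) preincubated 15 min at 22 °C with compound in Tris pH 8.0, MgCl2, DTT buffer before reaction with biotinylated peptide substrate at high ATP (2 mM).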

Where only a bound is given, the exact number is not on record here.

T1 sequence (P50750 whole entry): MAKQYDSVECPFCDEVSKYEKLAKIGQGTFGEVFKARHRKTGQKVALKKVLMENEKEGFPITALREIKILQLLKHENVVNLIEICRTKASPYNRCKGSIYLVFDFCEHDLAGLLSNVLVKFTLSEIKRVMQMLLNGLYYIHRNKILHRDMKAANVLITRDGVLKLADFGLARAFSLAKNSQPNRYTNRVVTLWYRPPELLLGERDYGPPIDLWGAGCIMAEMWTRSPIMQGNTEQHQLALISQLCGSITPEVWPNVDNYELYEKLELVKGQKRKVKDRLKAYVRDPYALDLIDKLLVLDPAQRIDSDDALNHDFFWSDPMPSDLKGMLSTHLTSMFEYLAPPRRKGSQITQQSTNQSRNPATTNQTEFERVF
T1 sequence (O60563 whole entry partner): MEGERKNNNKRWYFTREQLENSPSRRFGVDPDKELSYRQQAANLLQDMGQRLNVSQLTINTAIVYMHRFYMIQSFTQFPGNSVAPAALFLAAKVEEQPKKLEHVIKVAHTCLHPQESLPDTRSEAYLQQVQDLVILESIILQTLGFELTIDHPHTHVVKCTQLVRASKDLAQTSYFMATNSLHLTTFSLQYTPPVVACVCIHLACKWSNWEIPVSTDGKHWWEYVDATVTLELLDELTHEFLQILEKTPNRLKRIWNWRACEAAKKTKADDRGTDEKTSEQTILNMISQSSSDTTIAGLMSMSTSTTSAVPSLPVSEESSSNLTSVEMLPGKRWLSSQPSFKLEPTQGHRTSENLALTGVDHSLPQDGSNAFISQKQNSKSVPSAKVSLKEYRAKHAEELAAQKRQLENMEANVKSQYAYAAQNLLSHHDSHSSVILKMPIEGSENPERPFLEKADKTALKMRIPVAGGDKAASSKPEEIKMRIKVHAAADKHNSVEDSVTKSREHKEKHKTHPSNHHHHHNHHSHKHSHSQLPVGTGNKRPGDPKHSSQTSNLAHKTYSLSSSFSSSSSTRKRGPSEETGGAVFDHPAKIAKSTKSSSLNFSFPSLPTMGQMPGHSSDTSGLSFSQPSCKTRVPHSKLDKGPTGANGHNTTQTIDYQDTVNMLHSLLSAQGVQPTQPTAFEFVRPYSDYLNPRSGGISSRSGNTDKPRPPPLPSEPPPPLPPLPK

As for `CN1CCC(Oc2nc(NCc3nc4ccccc4[nH]3)n3ncc(Br)c3n2)CC1` [Example 389, N-[(1H-benzimidazol-2-yl)methyl]-8-bromo-2-[(1-methylpiperidin-4-yl)oxy]pyrazolo[1,5-a][1,3,5]triazin-4-amine], the IC50 is more than 20 µM.
The same measure for `CN(CC(C)(C)O)c1nc(NCc2nc3c(F)c(F)ccc3[nH]2)n2ncc(Cl)c2n1` [Example 359, 1-[(8-chloro-4-{[(4,5-difluoro-1H-benzimidazol-2-yl)methyl]amino}pyrazolo[1,5-a][1,3,5]triazin-2-yl)(methyl)amino]-2-methylpropan-2-ol]: 7.13 µM; for `CN1CCCN(c2nc(NCc3nc4ccccc4[nH]3)n3ncc(Br)c3n2)CC1` [Example 390, N-[(1H-benzimidazol-2-yl)methyl]-8-bromo-2-(4-methyl-1,4-diazepan-1-yl)pyrazolo[1,5-a][1,3,5]triazin-4-amine]: more than 20 µM.
The value for `Brc1cnn2c(NCc3nc4ccccc4[nH]3)nc(N3C[C@H]4CC[C@@H]3CO4)nc12` (single isomer, unassigned; enantiomer 2) [Example 391, N-[(1H-benzimidazol-2-yl)methyl]-8-bromo-2-{[1R or S-(1R*,4R*)]-2-oxa-5-azabicyclo[2.2.2]octan-5-yl}pyrazolo[1,5-a][1,3,5]triazin-4-amine (Enantiomer 2)] was more than 20 µM; that for `CN(CC(C)(C)O)c1nc(NCc2nc3c(F)c(Cl)ccc3[nH]2)n2ncc(C3CC3)c2n1` [Example 387, 1-[(4-{[(5-chloro-4-fluoro-1H-benzimidazol-2-yl)methyl]amino}-8-cyclopropylpyrazolo[1,5-a][1,3,5]triazin-2-yl)(methyl)amino]-2-methylpropan-2-ol] was 5.93 µM; that for `CN1CCN(c2nc(NCc3nc4c(F)c(F)ccc4[nH]3)n3ncc(Cl)c3n2)CC1` [Example 358, 8-chloro-N-[(4,5-difluoro-1H-benzimidazol-2-yl)methyl]-2-(4-methylpiperazin-1-yl)pyrazolo[1,5-a][1,3,5]triazin-4-amine] was more than 20 µM.
The value for `FC(F)(F)Oc1cccc2[nH]c(CNc3nc(N4C[C@H]5CC[C@@H](C4)N5)nc4c(Br)cnn34)nc12` [Example 381, 8-bromo-2-[(1R,5S)-3,8-diazabicyclo[3.2.1]octan-3-yl]-N-{[4-(trifluoromethoxy)-1H-benzimidazol-2-yl]methyl}pyrazolo[1,5-a][1,3,5]triazin-4-amine] was 14 µM; that for `Brc1cnn2c(NCc3nc4ccccc4[nH]3)nc(N3CCN4CCC3C4)nc12` (centres unmarked) [Example 350, N-[(1H-benzimidazol-2-yl)methyl]-8-bromo-2-(1,4-diazabicyclo[3.2.1]octan-4-yl)pyrazolo[1,5-a][1,3,5]triazin-4-amine] was more than 20 µM.
`FC(F)(F)c1ccc2[nH]c(CNc3nc(N4CCOCC4)nc4c(C5CC5)cnn34)nc2c1` [Example 322, 8-cyclopropyl-2-(morpholin-4-yl)-N-{[5-(trifluoromethyl)-1H-benzimidazol-2-yl]methyl}pyrazolo[1,5-a][1,3,5]triazin-4-amine]: the IC50 was more than 20 µM.
The value for `FC(F)(F)Oc1ccc2[nH]c(CNc3nc(N4C[C@H]5CC[C@@H](C4)N5)nc4c(Br)cnn34)nc2c1` [Example 382, 8-bromo-2-[(1R,5S)-3,8-diazabicyclo[3.2.1]octan-3-yl]-N-{[5-(trifluoromethoxy)-1H-benzimidazol-2-yl]methyl}pyrazolo[1,5-a][1,3,5]triazin-4-amine] was more than 20 µM; that for `Clc1cc2nc(CNc3nc(N4CCOCC4)nc4c(Br)cnn34)[nH]c2cc1Cl` [Example 329, 8-bromo-N-[(5,6-dichloro-1H-benzimidazol-2-yl)methyl]-2-(morpholin-4-yl)pyrazolo[1,5-a][1,3,5]triazin-4-amine] was 13.8 µM.
Take `CN(c1nc(NCc2nc3ccccc3[nH]2)n2ncc(Br)c2n1)[C@H]1C[C@@H](O)C1` [Example 364, cis-3-[(4-{[(1H-benzimidazol-2-yl)methyl]amino}-8-bromopyrazolo[1,5-a][1,3,5]triazin-2-yl)(methyl)amino]cyclobutan-1-ol]: the IC50 was more than 20 µM.
Take `FC(F)(F)c1ccc2[nH]c(CNc3nc(N4CCOCC4)nc4c(Br)cnn34)nc2c1` [Example 339, 8-bromo-2-(morpholin-4-yl)-N-{[5-(trifluoromethyl)-1H-benzimidazol-2-yl]methyl}pyrazolo[1,5-a][1,3,5]triazin-4-amine]: the IC50 was found to be 13.8 µM.
The value for `CN1CCN(c2nc(NCc3nc4c(F)cccc4[nH]3)n3ncc(Cl)c3n2)CC1.O=CO` [Example 362, formic acid 8-chloro-N-[(4-fluoro-1H-benzimidazol-2-yl)methyl]-2-(4-methylpiperazin-1-yl)pyrazolo[1,5-a][1,3,5]triazin-4-amine] was more than 20 µM; that for `CN1CCN(c2nc(NCc3nc4cc(OC(F)(F)F)ccc4[nH]3)n3ncc(Br)c3n2)CC1` [Example 377, 8-bromo-2-(4-methylpiperazin-1-yl)-N-{[5-(trifluoromethoxy)-1H-benzimidazol-2-yl]methyl}pyrazolo[1,5-a][1,3,5]triazin-4-amine] was more than 20 µM.
On to `Brc1cnn2c(NCc3nc4ccccc4[nH]3)nc(N3CC4CCC3CO4)nc12` (centres unmarked) [Example 352, N-[(1H-benzimidazol-2-yl)methyl]-8-bromo-2-(2-oxa-5-azabicyclo[2.2.2]octan-5-yl)pyrazolo[1,5-a][1,3,5]triazin-4-amine], for which the IC50 was determined as 16.8 µM.
For the compound `CN1CCN(c2nc(NCc3nc4c(OC(F)(F)F)cccc4[nH]3)n3ncc(Br)c3n2)CC1` [Example 376, 8-bromo-2-(4-methylpiperazin-1-yl)-N-{[4-(trifluoromethoxy)-1H-benzimidazol-2-yl]methyl}pyrazolo[1,5-a][1,3,5]triazin-4-amine], the IC50 is more than 20 µM.
The value for `FC(F)(F)c1cnn2c(NCc3nc4cc(Cl)c(Cl)cc4[nH]3)nc(N3CCOCC3)nc12` [Example 332, N-[(5,6-dichloro-1H-benzimidazol-2-yl)methyl]-2-(morpholin-4-yl)-8-(trifluoromethyl)pyrazolo[1,5-a][1,3,5]triazin-4-amine] was more than 20 µM; that for `CN(CC(C)(C)O)c1nc(NCc2nc3cc(C(F)(F)F)ccc3[nH]2)n2ncc(C3CC3)c2n1` [Example 323, 1-{[8-cyclopropyl-4-({[5-(trifluoromethyl)-1H-benzimidazol-2-yl]methyl}amino)pyrazolo[1,5-a][1,3,5]triazin-2-yl](methyl)amino}-2-methylpropan-2-ol] was more than 20 µM; that for `C[C@H]1CN(C)CCN1c1nc(NCc2nc3c(F)cccc3[nH]2)n2ncc(C(F)(F)F)c2n1` [Example 388, 2-[(2S)-2,4-dimethylpiperazin-1-yl]-N-[(4-fluoro-1H-benzimidazol-2-yl)methyl]-8-(trifluoromethyl)pyrazolo[1,5-a][1,3,5]triazin-4-amine] was more than 20 µM.
The value for `Clc1cc2nc(CNc3nc(N4CC5CCC(C4)N5)nc4c(C5CC5)cnn34)[nH]c2cc1Cl` [Example 324, 8-cyclopropyl-2-(3,8-diazabicyclo[3.2.1]octan-3-yl)-N-[(5,6-dichloro-1H-benzimidazol-2-yl)methyl]pyrazolo[1,5-a][1,3,5]triazin-4-amine] was 12.3 µM.
For `CN(c1nc(NCc2nc3ccccc3[nH]2)n2ncc(Br)c2n1)[C@H]1C[C@H](O)C1` [Example 365, trans-3-[(4-{[(1H-benzimidazol-2-yl)methyl]amino}-8-bromopyrazolo[1,5-a][1,3,5]triazin-2-yl)(methyl)amino]cyclobutan-1-ol], the IC50 is more than 20 µM.
The value for `Brc1cnn2c(NCc3nc4ccccc4[nH]3)nc(N3CC4CCC(C3)O4)nc12` [Example 351, N-[(1H-benzimidazol-2-yl)methyl]-8-bromo-2-(8-oxa-3-azabicyclo[3.2.1]octan-3-yl)pyrazolo[1,5-a][1,3,5]triazin-4-amine] was more than 20 µM; that for `Cc1cc2nc(CNc3nc(N4CCOCC4)nc4c(C5CC5)cnn34)[nH]c2cc1C` [Example 320, 8-cyclopropyl-N-[(5,6-dimethyl-1H-benzimidazol-2-yl)methyl]-2-(morpholin-4-yl)pyrazolo[1,5-a][1,3,5]triazin-4-amine] was more than 20 µM; that for `CN(CC(C)(C)O)c1nc(NCc2nc3cc(OC(F)(F)F)ccc3[nH]2)n2ncc(Br)c2n1` [Example 378, 1-{[8-bromo-4-({[5-(trifluoromethoxy)-1H-benzimidazol-2-yl]methyl}amino)pyrazolo[1,5-a][1,3,5]triazin-2-yl](methyl)amino}-2-methylpropan-2-ol] was 12.7 µM.
For the compound `Fc1cccc2[nH]c(CNc3nc(N4CC5CCC(C4)N5)nc4c(Cl)cnn34)nc12` [Example 363, 8-chloro-2-(3,8-diazabicyclo[3.2.1]octan-3-yl)-N-[(4-fluoro-1H-benzimidazol-2-yl)methyl]pyrazolo[1,5-a][1,3,5]triazin-4-amine], the IC50 is more than 20 µM.
Take `CC[C@H](CO)Nc1nc(NCc2nc3ccccc3[nH]2)n2ncc(Br)c2n1` [Example 368, (2R)-2-[(4-{[(1H-benzimidazol-2-yl)methyl]amino}-8-bromopyrazolo[1,5-a][1,3,5]triazin-2-yl)amino]butan-1-ol]: the IC50 was more than 20 µM.
The same measure for `Fc1cccc(-c2nnc(CNc3nc(N4CCOCC4)nc4c(C(F)(F)F)cnn34)[nH]2)c1` [Example 385, N-{[5-(3-fluorophenyl)-4H-1,2,4-triazol-3-yl]methyl}-2-(morpholin-4-yl)-8-(trifluoromethyl)pyrazolo[1,5-a][1,3,5]triazin-4-amine]: 1.29 µM.
The same measure for `CCNc1nc(NCc2nc(-c3ccc(C)cc3)c[nH]2)n2ncc(Br)c2n1` [Example 26, 8-bromo-N^2-ethyl-N^4-{[4-(4-methylphenyl)-1H-imidazol-2-yl]methyl}pyrazolo[1,5-a][1,3,5]triazine-2,4-diamine]: 8.74 µM.
